For series [1], the system named is M1R. Also on record: method as in PMID 30089885. As to conditions: at concentrations required for procognitive efficacy; cited from earlier work.
Series [2] deals with M1R. On the set-up: method as in PMID 30089885. As to conditions: cited from earlier work.
The subject of series [3] is rats. On the set-up: method as in PMID 30089885. As to conditions: cited from earlier work.
The test system of series [4] is rats pretreated with scopolamine. Also on record: method as in PMID 30089885. As to conditions: 0.1 mg/kg; cited from earlier work.
The test system of series [5] is SD rats. As to conditions: rats, donepezil 0.1 mg/kg p.o. alone; combination study; rats with effect/total. The procedure:
Seven‐ or 8‐week‐old SD rats were individually placed into observation cages. After an acclimation period of at least 1 hour, a test compound was administered to the rats. […] Cholinergic side effects, including diarrhea, lacrimation, salivation, miosis, and fasciculation, were assessed blindly, as described previously,27 and convulsion was scored using a modified Racine scale,37 as follows: stage 0, normal; stage 1, immobility; stage 2, forelimb and/or tail extension and rigid posture; stage 3, repetitive movements, head nodding, and gnawing; stage 4, rearing and falling; stage 5, continuous rearing and falling; stage 6, severe tonic‐clonic seizure with loss of postural control; and stage 7, death in the first 2 hours.

Series [6] deals with CaMKIIα‐tTA/A53T α‐syn dTg mice. In words: Y‐maze task. The format is in vivo, mouse. As to conditions: 1 mg/kg p.o. (P = .12). How it is done: The Y‐maze was fabricated from gray plastic and consisted of three arms (40 cm long, 12 cm high, 3 cm wide at the bottom, and 10 cm wide at the top) with an angle of 120°. Visual cues were placed outside each arm, and the apparatus was illuminated at 10 lux. […] An arm entry was defined as all four paws of the mouse being in the arm, and the sequence of arm entries was monitored with a video camera and counted manually. An alternation was defined as successive entries into the three arms on overlapping triplet sets.36 The percentage of alternation was calculated as the ratio of actual to possible alternations (total number of arm entries minus 2) multiplied by 100.

The text below walks through data of paper PMC6986443, “T‐495, a novel low cooperative M1 receptor positive allosteric modulator, improves memory deficits associated with cholinergic dysfunction and is characterized by low gastrointestinal side effect risk” (Pharmacology Research & Perspectives, 2020).

The structures appear in SMILES notation.

Consider `Cc1c(Cc2ccc(-n3cccn3)cc2)cc2c(c1F)CN([C@H]1COCC[C@@H]1O)C2=O` [TAK‐071], for which, in series [1], the “inhibition of the binding of scopolamine to M1R” value is “did not inhibit”. In addition, the “α‐value (cooperativity)” value in series [2] is 199. Further, the “scopolamine‐induced cognitive impairment, combination with an AChEI” value in series [3] is recorded as “synergistically improved”. In addition, in series [3] (rats), the “difference between doses improving cognitive function and doses inducing diarrhea” value is listed as 33 fold.
Consider `COc1cc2c(cc1OC)C(=O)C(CC1CCN(Cc3ccccc3)CC1)C2` (stereo not drawn) [donepezil, reference compound], for which the “scopolamine‐induced NDI reduction, retention trial” value in series [4] is “subeffective”. In series [5], the Convulsion is listed as 0/6; the Fasciculation is 0/6; the Lacrimation is listed as 0/6; the “Loose, mucous stool, or diarrhea” value is recorded as 0/6. Besides, in series [5], the Myosis was 0/6 and the Salivation is reported as 0/6. Further, the “reduced percentage of alternations” value in series [6] is “tended to reverse”.
